Test results taken from PubChem BioAssay (NCI).
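Here, GI50 denotes the concentration required for 50% inhibition of growth. TGI denotes the concentration required for complete inhibition of growth.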

Assays:
Experiment in all cases: DTP human tumour cell line panel, 384-well format
IGROV1 ovarian = tested on: IGROV1 ovarian
HL-60(TB) leukemia = tested on: HL-60(TB) leukemia
SR leukemia = tested on: SR leukemia
NCI-H226 lung = tested on: NCI-H226 lung
HT29 colon = tested on: HT29 colon
COLO 205 colon = tested on: COLO 205 colon
SK-MEL-2 melanoma = tested on: SK-MEL-2 melanoma
DU-145 prostate = tested on: DU-145 prostate
HCT-15 colon = tested on: HCT-15 colon
SN12C renal = tested on: SN12C renal
NCI-H522 lung = tested on: NCI-H522 lung
TK-10 renal = tested on: TK-10 renal
RPMI-8226 leukemia = tested on: RPMI-8226 leukemia
A498 renal = tested on: A498 renal
LOX IMVI melanoma = tested on: LOX IMVI melanoma
NCI-H322M lung = tested on: NCI-H322M lung
CAKI-1 renal = tested on: CAKI-1 renal
MDA-MB-435 melanoma = tested on: MDA-MB-435 melanoma
SF-268 CNS = tested on: SF-268 CNS
OVCAR-3 ovarian = tested on: OVCAR-3 ovarian
MCF7 breast = tested on: MCF7 breast
HCC-2998 colon = tested on: HCC-2998 colon
ACHN renal = tested on: ACHN renal
KM12 colon = tested on: KM12 colon
UACC-62 melanoma = tested on: UACC-62 melanoma
MDA-MB-468 breast = tested on: MDA-MB-468 breast
MDA-MB-231 breast = tested on: MDA-MB-231 breast
MALME-3M melanoma = tested on: MALME-3M melanoma
HCT-116 colon = tested on: HCT-116 colon
MOLT-4 leukemia = tested on: MOLT-4 leukemia
M14 melanoma = tested on: M14 melanoma
NCI-H23 lung = tested on: NCI-H23 lung
UO-31 renal = tested on: UO-31 renal
HOP-62 NSCLC = tested on: HOP-62 NSCLC
OVCAR-5 ovarian = tested on: OVCAR-5 ovarian
786-0 renal = tested on: 786-0 renal
SNB-19 CNS = tested on: SNB-19 CNS
OVCAR-8 ovarian = tested on: OVCAR-8 ovarian
CCRF-CEM leukemia = tested on: CCRF-CEM leukemia
PC-3 prostate = tested on: PC-3 prostate
SF-295 CNS = tested on: SF-295 CNS
UACC-257 melanoma = tested on: UACC-257 melanoma
K-562 leukemia = tested on: K-562 leukemia
HOP-92 NSCLC = tested on: HOP-92 NSCLC
OVCAR-4 ovarian = tested on: OVCAR-4 ovarian
U251 glioblastoma = tested on: U251 glioblastoma
NCI-H460 NSCLC = tested on: NCI-H460 NSCLC
SW-620 colon = tested on: SW-620 colon
SF-539 CNS = tested on: SF-539 CNS
T-47D breast = tested on: T-47D breast
NCI/ADR-RES ovarian = tested on: NCI/ADR-RES ovarian
SK-MEL-28 melanoma = tested on: SK-MEL-28 melanoma
SK-MEL-5 melanoma = tested on: SK-MEL-5 melanoma
BT-549 breast = tested on: BT-549 breast
SK-OV-3 ovarian = tested on: SK-OV-3 ovarian
RXF 393 renal = tested on: RXF 393 renal
A549 NSCLC = tested on: A549 NSCLC

Molecule `Cc1c(-c2ccc(N3CCc4cccc(C(=O)Nc5nc6ccccc6s5)c4C3)nc2C(=O)O)cnn1CC12CC3CC(CC(C3)C1)C2` has a GI50 (IGROV1 ovarian) of 1670 nM, a TGI (IGROV1 ovarian) of 4 µM and a GI50 (HL-60(TB) leukemia) of 2530 nM. The TGI (HL-60(TB) leukemia) was 5.94 µM, the GI50 (SR leukemia) was 19.1 nM and the TGI (SR leukemia) was 2470 nM. It also gave a GI50 (NCI-H226 lung) of 1000 nM, a TGI (NCI-H226 lung) of 11.5 µM and a GI50 (HT29 colon) of 12.9 µM. For the same molecule, the TGI (HT29 colon) was 25.6 µM, the GI50 (COLO 205 colon) was 272 nM and the TGI (COLO 205 colon) was 1730 nM. The GI50 (SK-MEL-2 melanoma) was less than 10 nM, the TGI (SK-MEL-2 melanoma) was 2670 nM and the GI50 (DU-145 prostate) was 16.7 µM. For the same molecule, the TGI (DU-145 prostate) was 30.4 µM, the GI50 (HCT-15 colon) was 4.28 µM and the TGI (HCT-15 colon) was 16.6 µM. The GI50 (SN12C renal) was 13.5 µM, the TGI (SN12C renal) was 26.4 µM and the GI50 (NCI-H522 lung) was 3.66 µM. For the same molecule, the TGI (NCI-H522 lung) was 17.6 µM, the GI50 (TK-10 renal) was 2480 nM and the TGI (TK-10 renal) was 16 µM. For the same molecule, the GI50 (RPMI-8226 leukemia) was less than 10 nM, the TGI (RPMI-8226 leukemia) was less than 10 nM and the GI50 (A498 renal) was 91.1 nM. The TGI (A498 renal) was 2390 nM, the GI50 (LOX IMVI melanoma) was 6.46 µM and the TGI (LOX IMVI melanoma) was 18.6 µM. For the same molecule, the GI50 (NCI-H322M lung) was 7.97 µM, the TGI (NCI-H322M lung) was 21 µM and the GI50 (CAKI-1 renal) was 13.8 µM. It also gave a TGI (CAKI-1 renal) of 26.8 µM, a GI50 (MDA-MB-435 melanoma) of 2470 nM and a TGI (MDA-MB-435 melanoma) of 14 µM. It also gave a GI50 (SF-268 CNS) of 15.2 µM, a TGI (SF-268 CNS) of 28.5 µM and a GI50 (OVCAR-3 ovarian) of 4.03 µM. For the same molecule, the TGI (OVCAR-3 ovarian) was 18.1 µM, the GI50 (MCF7 breast) was 14.2 µM and the TGI (MCF7 breast) was 27.2 µM. For the same molecule, the GI50 (HCC-2998 colon) was less than 10 nM, the TGI (HCC-2998 colon) was 66.1 nM and the GI50 (ACHN renal) was 11.6 µM. The TGI (ACHN renal) was 23.8 µM, the GI50 (KM12 colon) was 11.2 µM and the TGI (KM12 colon) was 23.2 µM. The GI50 (UACC-62 melanoma) was 13.6 µM, the TGI (UACC-62 melanoma) was 26.4 µM and the GI50 (MDA-MB-468 breast) was 1700 nM. For the same molecule, the TGI (MDA-MB-468 breast) was 7.04 µM, the GI50 (MDA-MB-231 breast) was less than 10 nM and the TGI (MDA-MB-231 breast) was 186 nM. For the same molecule, the GI50 (MALME-3M melanoma) was 11.6 µM, the TGI (MALME-3M melanoma) was 23.8 µM and the GI50 (HCT-116 colon) was 3.88 µM. It also gave a TGI (HCT-116 colon) of 16.9 µM, a GI50 (MOLT-4 leukemia) of less than 10 nM and a TGI (MOLT-4 leukemia) of less than 10 nM. It also gave a GI50 (M14 melanoma) of 16 µM, a TGI (M14 melanoma) of 29.5 µM and a GI50 (NCI-H23 lung) of 8.42 µM. It also gave a TGI (NCI-H23 lung) of 20.9 µM, a GI50 (UO-31 renal) of 1140 nM and a TGI (UO-31 renal) of 12 µM. It also gave a GI50 (HOP-62 NSCLC) of 15.3 µM, a TGI (HOP-62 NSCLC) of 28.7 µM and a GI50 (OVCAR-5 ovarian) of 351 nM. The TGI (OVCAR-5 ovarian) was 12.5 µM, the GI50 ([…]-0 renal) was 3.65 µM and the TGI (786-0 renal) was 15.5 µM. The GI50 (SNB-19 CNS) was 10 µM, the TGI (SNB-19 CNS) was 21.6 µM and the GI50 (OVCAR-8 ovarian) was 11.8 µM. It also gave a TGI (OVCAR-8 ovarian) of 24.1 µM, a GI50 (CCRF-CEM leukemia) of less than 10 nM and a TGI (CCRF-CEM leukemia) of 11.2 nM. It also gave a GI50 (PC-3 prostate) of 4.89 µM, a TGI (PC-3 prostate) of 17.4 µM and a GI50 (SF-295 CNS) of 3.63 µM. The TGI (SF-295 CNS) was 15.2 µM, the GI50 (UACC-257 melanoma) was 9.83 µM and the TGI (UACC-257 melanoma) was 21.5 µM. It also gave a GI50 (K-562 leukemia) of 10.8 µM, a TGI (K-562 leukemia) of 22.8 µM and a GI50 (HOP-92 NSCLC) of less than 10 nM. The TGI (HOP-92 NSCLC) was 17.4 nM, the GI50 (OVCAR-4 ovarian) was 11.5 nM and the TGI (OVCAR-4 ovarian) was 13.2 µM. For the same molecule, the GI50 (U251 glioblastoma) was 11.6 µM, the TGI (U251 glioblastoma) was 23.9 µM and the GI50 (NCI-H460 NSCLC) was 17.1 µM. It also gave a TGI (NCI-H460 NSCLC) of 30.8 µM, a GI50 (SW-620 colon) of 12.4 µM and a TGI (SW-620 colon) of 24.8 µM. It also gave a GI50 (SF-539 CNS) of 14.6 µM, a TGI (SF-539 CNS) of 27.8 µM and a GI50 (T-47D breast) of 10.6 µM. It also gave a TGI (T-47D breast) of 22.4 µM, a GI50 (NCI/ADR-RES ovarian) of 13.5 µM and a TGI (NCI/ADR-RES ovarian) of 26.4 µM. For the same molecule, the GI50 (SK-MEL-28 melanoma) was 4.35 µM, the TGI (SK-MEL-28 melanoma) was 16.3 µM and the GI50 (SK-MEL-5 melanoma) was 12.8 µM. It also gave a TGI (SK-MEL-5 melanoma) of 25.4 µM, a GI50 (BT-549 breast) of 9.65 µM and a TGI (BT-549 breast) of 21.4 µM. For the same molecule, the GI50 (SK-OV-3 ovarian) was 6.03 µM, the TGI (SK-OV-3 ovarian) was 18.7 µM and the GI50 (RXF 393 renal) was less than 10 nM. For the same molecule, the TGI (RXF 393 renal) was 10.8 nM, the GI50 (A549 NSCLC) was 8.57 µM and the TGI (A549 NSCLC) was 21 µM.
